# Data as given in US20020107414A1, “Method of prostaglandin synthesis” (priority 1993, published 2002).
# Read-outs that look alike come from different tables or passages of the source.
# Assays:
# [1] = test system: intraocular pressure (IOP); assay: IOP reduction in cynomolgus monkeys with ocular hypertension produced by laser trabeculoplasty; type: in vivo; conditions: for Percent IOP Reduction at Hours after Dose/Dose# 2/5: 2 hours after fifth dose; for Percent IOP Reduction at Hours after Dose/Dose# 4/5: 4 hours after fifth dose; for Percent IOP Reduction at Hours after Dose/Dose# 6/5: 6 hours after fifth dose; for Percent IOP Reduction at Hours after Dose/Dose# 16/4: 16 hours after fourth dose; for reduction of intraocular pressure (in words): at doses marginal or ineffective for other prostaglandins in published clinical studies
# Description: The ability of certain compounds of the present invention to reduce intraocular pressure (IOP) was evaluated in cynomolgus monkeys with ocular hypertension produced by previous laser trabeculoplasty in the right eye. Animals had been trained to sit in restraint chairs and conditioned to accept experimental procedures without chemical restraint. IOP was determined with a pneumatonometer after light corneal anesthesia with dilute proparacaine. The test protocol included a treatment regimen consisting of 5 divided doses administered over a period of 2 and ½ days. Doses 2-5 were given 8, 24, 32 and 48 hours after the initial dose. Baseline IOP values were determined prior to treatment with the test formulation, and then IOP was determined 16 hours after the fourth dose, and 2, 4 and 6 hours after the fifth dose. Prostaglandin doses are micrograms of compound contained in each treatment. The two compounds tested are those previously identified as Compounds (II) and (IV).
# [2] = test system: intraocular pressure in human eyes; conditions: cited from earlier work
# [3] = test system: intraocular pressure (IOP); conditions: rabbits, cited from earlier work
smiles,measurement,setting,value
"CC(C)OC(=O)CCC/C=C\C[C@@H]1[C@@H](CC[C@@H](O)C2CCCCC2)[C@H](O)C[C@H]1Cl [Compound (IV), (5Z)-(9R, 11R, 15R)-9-Chloro-15-cyclohexyl-11,15-dihydroxy-16,17,18,19,20-pentanor-5-prostenoic Acid Isopropyl Ester]",Percent IOP Reduction at Hours after Dose/Dose# 2/5,[1]; PG dose 20 μg per treatment,30.1 ± 4.8%
same,Percent IOP Reduction at Hours after Dose/Dose# 4/5,[1]; PG dose 20 μg per treatment,22.4 ± 5.2%
same,Percent IOP Reduction at Hours after Dose/Dose# 6/5,[1]; PG dose 20 μg per treatment,19.3 ± 4.3%
same,Percent IOP Reduction at Hours after Dose/Dose# 16/4,[1]; PG dose 20 μg per treatment,13.9 ± 2.7%
same,reduction of intraocular pressure (in words),[1],significant reduction
O=C(O)CCCCCCC1C(=O)NC(=O)N1CCC(O)C1CCCCC1 (stereo not shown) [BW245C],reduction of intraocular pressure in human eyes,[2]; 2.5 μg,10%
same,maximum IOP reduction,[3]; 25 μg,~22%
"CC(C)(C)OC(=O)COC/C=C\C[C@@H]1[C@@H](CC[C@@H](O)C2CCCCC2)[C@H](O)C[C@H]1Cl [Compound (II), (5Z)-(9R, 11R, 15R)-9-Chloro-15-cyclohexyl-11,15-dihydroxy-3-oxa-16,17,18,19,20-pentanor-5-prostenoic Acid t-Butyl Ester]",reduction of intraocular pressure,[1]; 5 μg of compound,~50%
same,Percent IOP Reduction at Hours after Dose/Dose# 2/5,[1]; PG dose 1 μg per treatment,30.8 ± 4.7%
same,Percent IOP Reduction at Hours after Dose/Dose# 4/5,[1]; PG dose 1 μg per treatment,26.4 ± 4.7%
same,Percent IOP Reduction at Hours after Dose/Dose# 6/5,[1]; PG dose 1 μg per treatment,24.9 ± 4.0%
same,Percent IOP Reduction at Hours after Dose/Dose# 16/4,[1]; PG dose 1 μg per treatment,22.3 ± 2.7%
same,Percent IOP Reduction at Hours after Dose/Dose# 2/5,[1]; PG dose 5 μg per treatment,47.5 ± 5.1%
same,Percent IOP Reduction at Hours after Dose/Dose# 4/5,[1]; PG dose 5 μg per treatment,43.7 ± 5.6%
same,Percent IOP Reduction at Hours after Dose/Dose# 6/5,[1]; PG dose 5 μg per treatment,36.5 ± 5.8%
same,Percent IOP Reduction at Hours after Dose/Dose# 16/4,"[1]; PG dose 5 μg per treatment, lasered right eye, topical",38.3 ± 3.0%
same,reduction of intraocular pressure (in words),[1],significant reduction
CCCCC[C@H](O)/C=C/[C@H]1C(=O)C[C@H](O)[C@@H]1C/C=C\CCCC(=O)O [PGD2],reduction of intraocular pressure in human eyes,[2]; 50 μg,12%
same,maximum IOP reduction,[3]; 250 μg,approximately 28%
